Experimental data from patent publication US20180116213A1 (priority 2015, published 2018).

Assays:
plant leaves = assay: Different tests (leaf disc bioassays, growth chamber trials, field trials), summary; details: herbicide alone at a concentration of 0.1% to 0.25%
Method: The activity of the synergistic mixtures to enhance the efficacy of herbicides was tested in vitro by leaf disc bioassays, in growth chamber trials with seedlings and in field trials with various different weed species.
(§1) The plants and leaves were visually assessed for damages by necrosis and chlorosis with the following scale for evaluation: • 0: no damage • +: minor damages • ++: severe damages on up to 50% of leave surface • +++: damages on more than 50% of leave surface • ++++: 100% damage

[1] = system: leaf discs of the common lawn weed Plantiago major; assay: Leaf disc bioassay, Plantiago major leaf discs; design: key to necrosis and chlorosis 18 HAT / necrosis and chlorosis 36 HAT: 0: no damage; +: minor damages; ++: severe damages on up to 50% of leave surface; +++: damages on more than 50% of leave surface; ++++: 100% damage
Text: as §1
5 mm discs were cut from leaves of plants from Plantiago major, Sesamum indicum, Aegopodium potagraria and Chelidonium majus using a paper punch (5 mm). 3 leaf discs of 5 mm Ø were placed in each well of 12-well microtiter plates. Each well containing 2 ml deionized H2O, or solutions of various concentrations of glyphosate, 2,4-D or synergistic mixtures (M). The plates were incubated under continuous light at 20° C. for the listed times. The leaf discs were visually assessed for chlorosis and necrosis at various times after treatment according to the scale for classification. The visual rating utilized a rating scale from 0 to ++++, where 0=no damage by necrosis/chlorosis, and ++++=total damage by chlorosis/necrosis (see Literature).
3 leaf discs of 5 mm Ø were placed in each well of 12-well microtiter plates. Each well containing 2 ml deionized H2O, or solutions of various concentrations of 2,4-D or synergistic mixture M4 with a 1:1 mixture of citric acid and SDS. The plates were incubated under continuous light at 20° C. for the listed times. The leaf discs were visually assessed for chlorosis and necrosis according to the scale for classification and listed for hours after treatment (HAT). The visual rating utilized a rating scale from 0 to ++++, where 0=no damage by necrosis/chlorosis, and ++++=total damage by chlorosis/necrosis.

[2] = application rate 0.1 % of volume
[3] = application rate 0.25 % of volume
[4] = application rate 0.5 % of volume

With O=C(O)COc1ccc(Cl)cc1Cl [2,4-D, 2,4-dichlorophenoxyacetic acid] as the compound, how does the “damage of plant leaves” value (plant leaves) read?
Its value is “did not show any significant damage”.

What about the “necrosis and chlorosis 18 HAT” value [1, 2] of the same compound?
Its value is 0.

And the “necrosis and chlorosis 36 HAT” value [1, 2]?
The value was 0.

And the “necrosis and chlorosis 18 HAT” value [1, 3]?
Its value is 0.

What about the “necrosis and chlorosis 36 HAT” value [1, 3] of the same compound?
Its value is 0.

And the “necrosis and chlorosis 18 HAT” value [1, 4]?
Its value is 0.

And the “necrosis and chlorosis 36 HAT” value [1, 4]?
The value was 0.

And the “damage of the leaf discs” value ([1]; substance alone, conditions of Table 4)?
Its value is “do not show efficient damage”.
